Data published in US20020055639A1, “Pyrazole derivatives as herbicides” (priority 1997, published 2002).

Key:
Assay type in all cases: in vivo
Set-up in all cases: key: 1=total damage; 9=no action; Ratings of from 1 to 4 (especially from 1 to 3) indicate good to very good herbicidal action
Setaria [1] = test: Pre-emergence herbicidal action (Example B1); conditions: 2000 g a.i./ha, sprayed immediately after sowing, evaluated after 3 weeks, scale of nine ratings
Procedure: (§1) Monocotyledonous and dicotyledonous test plants are sown in standard soil in plastics pots. Immediately after sowing, the test compounds, each in the form of an aqueous suspension or emulsion prepared from a 25% emulsifiable concentrate (Example F1, c) in WO 97/34485, pages 9 and 10), are applied by spraying at a rate of application of 2000 g of active ingredient/ha (500 liters water/ha). The test plants are then grown in a greenhouse under optimum conditions. After 3 weeks' test duration, the test is evaluated in accordance with a scale of nine ratings (1=total damage, 9=no action). Ratings of from 1 to 4 (especially from 1 to 3) indicate good to very good herbicidal action.
(§2) Test plants: Avena, Setaria, Sinapis, Stellaria

Stellaria [2] = test: Pre-emergence herbicidal action (Example B1); conditions: 2000 g a.i./ha, sprayed immediately after sowing, evaluated after 3 weeks, scale of nine ratings
Procedure: as §1, §2

Sinapis [3] = test: Pre-emergence herbicidal action (Example B1); conditions: 2000 g a.i./ha, sprayed immediately after sowing, evaluated after 3 weeks, scale of nine ratings
Procedure: as §1, §2

Avena [4] = test: Pre-emergence herbicidal action (Example B1); conditions: 2000 g a.i./ha, sprayed immediately after sowing, evaluated after 3 weeks, scale of nine ratings
Procedure: as §1, §2

Setaria [5] = test: Post-emergence herbicidal action (Example B2); conditions: 2000 g a.i./ha, sprayed at 4- to 6-leaf stage, evaluated after approximately 18 days, scale of nine ratings
Procedure: (§3) Monocotyledonous and dicotyledonous test plants are grown in a greenhouse in plastics pots containing standard soil and at the 4- to 6-leaf stage are sprayed with an aqueous suspension or emulsion of the test substances of formula I, prepared from a 25% emulsifiable concentrate (Example F1, c) in WO 97/34485, pages 9 and 10), at a rate of application corresponding to 2000 g of active ingredient/ha (500 liters water/ha). The test plants are then grown on in the greenhouse under optimum conditions. After approximately 18 days' test duration, the test is evaluated in accordance with a scale of nine ratings (1=total damage, 9=no action). Ratings of from 1 to 4 (especially from 1 to 3) indicate good to very good herbicidal action.
as §2

Stellaria [6] = test: Post-emergence herbicidal action (Example B2); conditions: 2000 g a.i./ha, sprayed at 4- to 6-leaf stage, evaluated after approximately 18 days, scale of nine ratings
Procedure: as §3, §2

Sinapis [7] = test: Post-emergence herbicidal action (Example B2); conditions: 2000 g a.i./ha, sprayed at 4- to 6-leaf stage, evaluated after approximately 18 days, scale of nine ratings
Procedure: as §3, §2

Avena [8] = test: Post-emergence herbicidal action (Example B2); conditions: 2000 g a.i./ha, sprayed at 4- to 6-leaf stage, evaluated after approximately 18 days, scale of nine ratings
Procedure: as §3, §2

Compound | Pre-emergence action: Setaria (rating) (Setaria [1]) | Pre-emergence action: Stellaria (rating) (Stellaria [2]) | Pre-emergence action: Sinapis (rating) (Sinapis [3]) | Pre-emergence action: Avena (rating) (Avena [4]) | Post-emergence action: Setaria (rating) (Setaria [5]) | Post-emergence action: Stellaria (rating) (Stellaria [6]) | Post-emergence action: Sinapis (rating) (Sinapis [7]) | Post-emergence action: Avena (rating) (Avena [8])
Cn1nc(-c2c(F)cc(Cl)c(=O)n2CS(C)(=O)=O)c(Cl)c1OC(F)F [Example 1.153] | 1 | 1 | 1 | 1 | 1 | 1 | 1 | 1
Cn1nc(-c2c(Cl)cc(Cl)c(=O)n2C)c(Cl)c1OC(F)F [Example 1.003] | 1 | 1 | 1 | 1 | 1 | 1 | 1 | 1
Cn1nc(-c2c(F)cc(Cl)c(=O)n2CCc2ccccc2)c(Cl)c1OC(F)F [Example 1.105] | 1 | 1 | 1 | 1 | 2 | 1 | 1 | 1
C#CCn1c(-c2nn(CC)c(OC(F)F)c2Cl)c(F)cc(Cl)c1=O [Example 7.100] | 1 | 1 | 1 | 1 | 1 | 1 | 1 | 1
CCSCCn1c(-c2nn(C)c(OC(F)F)c2Cl)c(F)cc(Cl)c1=O [Example 1.156] | 1 | 1 | 1 | 1 | 1 | 1 | 1 | 1
Cn1nc(-c2c(F)cc(Cl)c(=O)n2C[S+](C)[O-])c(Cl)c1OC(F)F (stereo not shown) [Example 1.150] | 1 | 1 | 1 | 1 | 1 | 1 | 1 | 1
C#CCn1c(-c2nn(C)c(S(C)(=O)=O)c2C)c(F)cc(Cl)c1=O [Example 28.100] | 1 | 1 | 1 | 1 | 1 | 1 | 1 | 1
Cn1nc(-c2ccc(Cl)c(=O)n2C)c(Cl)c1OC(F)F [Example 1.001] | 1 | 1 | 1 | 1 | 1 | 1 | 1 | 1
